Test results taken from the NIST ThermoML archive (doi:10.1016/j.jct.2016.03.026).

Experiment: xn = mol fraction of the nth substance listed
Settings: 263.15 K, Fluid (supercritical or subcritical phases), Vibrating tube method, x1 = 0.97

O=C=O [carbon dioxide] + CO
Settings | mass density [kg/m3]
13625 kPa | 1031.69
13650 kPa | 1031.77
13675 kPa | 1031.94
13700 kPa | 1031.97
13725 kPa | 1032.1
13750 kPa | 1032.18
13775 kPa | 1032.26
13800 kPa | 1032.34
13825 kPa | 1032.42
13850 kPa | 1032.53
13875 kPa | 1032.61
13900 kPa | 1032.75
13925 kPa | 1032.83
13950 kPa | 1032.91
13975 kPa | 1032.99
14000 kPa | 1033.08
14025 kPa | 1033.16
14050 kPa | 1033.24
14075 kPa | 1033.38
14100 kPa | 1033.48
14125 kPa | 1033.57
14150 kPa | 1033.65
14175 kPa | 1033.73
14200 kPa | 1033.81
14225 kPa | 1033.9
14250 kPa | 1033.97
14275 kPa | 1034.13
14300 kPa | 1034.22
14325 kPa | 1034.3
14350 kPa | 1034.38
14375 kPa | 1034.46
14400 kPa | 1034.54
14425 kPa | 1034.62
14450 kPa | 1034.7
14475 kPa | 1034.86
14500 kPa | 1034.95
14525 kPa | 1035.03
14550 kPa | 1035.11
14575 kPa | 1035.19
14600 kPa | 1035.28
14625 kPa | 1035.36
14650 kPa | 1035.44
14675 kPa | 1035.52
14700 kPa | 1035.62
14725 kPa | 1035.77
14750 kPa | 1035.83
14775 kPa | 1035.93
14800 kPa | 1036.01
14825 kPa | 1036.09
14850 kPa | 1036.17
14875 kPa | 1036.25
14900 kPa | 1036.34
14925 kPa | 1036.42
14950 kPa | 1036.51
14975 kPa | 1036.63
15000 kPa | 1036.74
15025 kPa | 1036.78
15050 kPa | 1036.9
15075 kPa | 1036.96
15100 kPa | 1037.07
15125 kPa | 1037.15
15150 kPa | 1037.23
15175 kPa | 1037.31
15200 kPa | 1037.39
15225 kPa | 1037.5
15250 kPa | 1037.56
15275 kPa | 1037.66
15300 kPa | 1037.72
15325 kPa | 1037.8
15350 kPa | 1037.91
15375 kPa | 1038.01
15400 kPa | 1038.07
15425 kPa | 1038.19
15450 kPa | 1038.28
15475 kPa | 1038.37
15500 kPa | 1038.45
15525 kPa | 1038.53
15550 kPa | 1038.61
15575 kPa | 1038.7
15600 kPa | 1038.78
15625 kPa | 1038.86
15650 kPa | 1038.94
15675 kPa | 1039.02
15700 kPa | 1039.1
15725 kPa | 1039.19
15750 kPa | 1039.26
15775 kPa | 1039.35
15800 kPa | 1039.43
15825 kPa | 1039.51
15850 kPa | 1039.61
15875 kPa | 1039.7
15900 kPa | 1039.79
15925 kPa | 1039.88
15950 kPa | 1039.97
15975 kPa | 1040.06
16000 kPa | 1040.16
16025 kPa | 1040.2
16050 kPa | 1040.31
16075 kPa | 1040.4
16100 kPa | 1040.49
16125 kPa | 1040.57
16150 kPa | 1040.65
16175 kPa | 1040.73
16200 kPa | 1040.81
16225 kPa | 1040.89
16250 kPa | 1040.97
16275 kPa | 1041.05
16300 kPa | 1041.16
16325 kPa | 1041.25
16350 kPa | 1041.32
16375 kPa | 1041.38
16400 kPa | 1041.46
16425 kPa | 1041.59
16450 kPa | 1041.66
16475 kPa | 1041.72
16500 kPa | 1041.79
16525 kPa | 1041.91
16550 kPa | 1041.95
16575 kPa | 1042.08
16600 kPa | 1042.19
16625 kPa | 1042.27
16650 kPa | 1042.33
16675 kPa | 1042.38
16700 kPa | 1042.51
16725 kPa | 1042.57
16750 kPa | 1042.68
16775 kPa | 1042.75
16800 kPa | 1042.82
16825 kPa | 1042.91
16850 kPa | 1043.01
16875 kPa | 1043.08
16900 kPa | 1043.17
16925 kPa | 1043.24
16950 kPa | 1043.33
16975 kPa | 1043.4
17000 kPa | 1043.49
17025 kPa | 1043.57
17050 kPa | 1043.64
17075 kPa | 1043.74
17100 kPa | 1043.82
17125 kPa | 1043.9
17150 kPa | 1043.98
17175 kPa | 1044.06
17200 kPa | 1044.14
17225 kPa | 1044.22
17250 kPa | 1044.31
17275 kPa | 1044.39
17300 kPa | 1044.44
17325 kPa | 1044.55
17350 kPa | 1044.63
17375 kPa | 1044.71
17400 kPa | 1044.79
17425 kPa | 1044.87
17450 kPa | 1044.94
17475 kPa | 1045.04
17500 kPa | 1045.12
17525 kPa | 1045.2
17550 kPa | 1045.28
17575 kPa | 1045.33
17600 kPa | 1045.44
17625 kPa | 1045.52
17650 kPa | 1045.61
17675 kPa | 1045.69
17700 kPa | 1045.77
17725 kPa | 1045.81
17750 kPa | 1045.89
17775 kPa | 1045.97
17800 kPa | 1046.04
17825 kPa | 1046.11
17850 kPa | 1046.26
17875 kPa | 1046.32
17900 kPa | 1046.37
17925 kPa | 1046.44
17950 kPa | 1046.51
17975 kPa | 1046.58
18000 kPa | 1046.66
18025 kPa | 1046.79
18050 kPa | 1046.85
18075 kPa | 1046.9
18100 kPa | 1046.98
18125 kPa | 1047.07
18150 kPa | 1047.15
18175 kPa | 1047.23
18200 kPa | 1047.31
18225 kPa | 1047.37
18250 kPa | 1047.47
18275 kPa | 1047.55
18300 kPa | 1047.62
18325 kPa | 1047.69
18350 kPa | 1047.75
18375 kPa | 1047.82
18400 kPa | 1047.88
18425 kPa | 1047.96
18450 kPa | 1048.04
18475 kPa | 1048.11
18500 kPa | 1048.2
18525 kPa | 1048.28
18550 kPa | 1048.31
18575 kPa | 1048.43
18600 kPa | 1048.53
18625 kPa | 1048.58
18650 kPa | 1048.64
18675 kPa | 1048.74
18700 kPa | 1048.83
18725 kPa | 1048.85
18750 kPa | 1048.93
18775 kPa | 1048.93
18800 kPa | 1049.06
18825 kPa | 1049.09
18850 kPa | 1049.34
18875 kPa | 1049.42
18900 kPa | 1049.5
18925 kPa | 1049.58
18950 kPa | 1049.66
18975 kPa | 1049.74
19000 kPa | 1049.82
19025 kPa | 1049.91
19050 kPa | 1049.99
19075 kPa | 1050.07
19100 kPa | 1050.15
19125 kPa | 1050.23
19150 kPa | 1050.31
19175 kPa | 1050.39
19200 kPa | 1050.47
19225 kPa | 1050.56
19250 kPa | 1050.63
19275 kPa | 1050.72
19300 kPa | 1050.8
19325 kPa | 1050.88
19350 kPa | 1050.96
19375 kPa | 1051.04
19400 kPa | 1051.12
19425 kPa | 1051.21
19450 kPa | 1051.29
19475 kPa | 1051.35
19500 kPa | 1051.45
19525 kPa | 1051.53
19550 kPa | 1051.58
19575 kPa | 1051.69
19600 kPa | 1051.77
19625 kPa | 1051.83
19650 kPa | 1051.89
19675 kPa | 1052.02
